From patent US20180273538A1, “PYRROLO[2,3-d]PYRIMIDINE DERIVATIVES, A PROCESS FOR THEIR PREPARATION AND PHARMACEUTICAL COMPOSITIONS CONTAINING THEM” (LES LABORATOIRES SERVIER, priority 2015, published 2018)

Target: T1, His-TEV-DYRK1A Kinase domain (aa127-485) (Homo sapiens, UniProt Q13627)
T1 construct: His-TEV-DYRK1A Kinase domain (aa127-485); His (N); TEV cleavage site (N)
Assay: Kinase ADP assay (ADP Hunter Plus)
Format: biochemical

SMILES	IC50 [µM]
Cc1cc(-c2c[nH]c3nc(C)nc(OC[C@@H]4CCCNC4)c23)ccn1 [Example 6, 2-methyl-5-(2-methylpyridin-4-yl)-4-[(3R)-piperidin-3-ylmethoxy]-7H-pyrrolo[2,3-d]pyrimidine]	0.07
Cc1nc(OCC2CC2)c2c(-c3ccncc3)c[nH]c2n1 [Example 7, 4-(cyclopropylmethoxy)-2-methyl-5-(pyridin-4-yl)-7H-pyrrolo[2,3-d]pyrimidine]	0.039
Cc1nc(OCCC2CC2)c2c(-c3ccncc3)c[nH]c2n1 [Example 8, 4-(2-cyclopropylethoxy)-2-methyl-5-(pyridin-4-yl)-7H-pyrrolo[2,3-d]pyrimidine]	0.038
Cc1nc(OCCc2c[nH]c3ccccc23)c2c(-c3ccncc3)c[nH]c2n1 [Example 9, 4-[2-(1H-indol-3-yl)ethoxy]-2-methyl-5-(pyridin-4-yl)-7H-pyrrolo[2,3-d]pyrimidine]	0.06
Cc1nc(OCCc2ccccc2)c2c(-c3ccncc3)c[nH]c2n1 [Example 10, 2-methyl-4-(2-phenylethoxy)-5-(pyridin-4-yl)-7H-pyrrolo[2,3-d]pyrimidine]	0.085
Cc1nc(OCCN2CCCC2)c2c(-c3ccncc3)c[nH]c2n1 [Example 12, 2-methyl-5-(pyridin-4-yl)-4-[2-(pyrrolidin-1-yl)ethoxy]-7H-pyrrolo[2,3-d]pyrimidine]	2.04
Cc1nc(OCCN2CCCCC2)c2c(-c3ccncc3)c[nH]c2n1 [Example 13, 2-methyl-4-[2-(piperidin-1-yl)ethoxy]-5-(pyridin-4-yl)-7H-pyrrolo[2,3-d]pyrimidine]	1.37
Cc1nc(OCC2CCCO2)c2c(-c3ccncc3)c[nH]c2n1 (centres unmarked) [Example 14, 2-methyl-5-(pyridin-4-yl)-4-(tetrahydrofuran-2-ylmethoxy)-7H-pyrrolo[2,3-d]pyrimidine]	0.043
Cc1nc(OCc2cccs2)c2c(-c3ccnc(N)c3)c[nH]c2n1 [Example 19, 4-[2-methyl-4-(thiophen-2-ylmethoxy)-7H-pyrrolo[2,3-d]pyrimidin-5-yl]pyridin-2-amine]	0.025
Cc1nc(OCc2cccnc2)c2c(-c3ccnc(N)c3)c[nH]c2n1 [Example 22, 4-[2-methyl-4-(pyridin-3-ylmethoxy)-7H-pyrrolo[2,3-d]pyrimidin-5-yl]pyridin-2-amine]	0.018
Cc1nc(OCc2ccncc2)c2c(-c3ccnc(N)c3)c[nH]c2n1 [Example 23, 4-[2-methyl-4-(pyridin-4-ylmethoxy)-7H-pyrrolo[2,3-d]pyrimidin-5-yl]pyridin-2-amine]	0.015
Cc1nc(OCc2cc(-c3ccc(F)cc3)on2)c2c(-c3ccnc(N)c3)c[nH]c2n1 [Example 24, 4-(4-{[5-(4-fluorophenyl)-1,2-oxazal-3-yl]methoxy}-2-methyl-7H-pyrrolo[2,3-d]pyrimidin-5-yl)pyridin-2-amine]	0.066
COc1ccc(COc2nc(C)nc3[nH]cc(-c4ccnc(N)c4)c23)cc1 [Example 26, 4-{4-[(4-methoxybenzyl)oxy]-2-methyl-7H-pyrrolo[2,3-d]pyrimidin-5-yl}pyridin-2-amine]	0.029
Cc1nc(N(C)C)c2c(-c3ccnc(N)c3)c[nH]c2n1 [Example 29, 5-(2-aminopyridin-4-yl)-N,N,2-trimethyl-7H-pyrrolo[2,3-d]pyrimidin-4-amine]	0.062
Cc1nc(N2CCCC2)c2c(-c3ccnc(N)c3)c[nH]c2n1 [Example 30, 4-[2-methyl-4-(pyrrolidin-1-yl)-7H-pyrrolo[2,3-d]pyrimidin-5-yl]pyridin-2-amine]	0.827
Cc1nc(N2CCC(N(C)C)C2)c2c(-c3ccnc(N)c3)c[nH]c2n1 (centres unmarked) [Example 31, 4-{4-[3-(dimethylamino)pyrrolidin-1-yl]-2-methyl-7H-pyrrolo[2,3-d]pyrimidin-5-yl}pyridin-2-amine]	1.07
Cc1nc(N2CCN(C)CC2)c2c(-c3ccnc(N)c3)c[nH]c2n1 [Example 33, 4-[2-methyl-4-(4-methypiperazin-1-yl)-7H-pyrrolo[2,3-d]pyrimidin-5-yl]pyridin-2-amine]	0.165
Cc1nc(NCc2cccnc2)c2c(-c3ccnc(N)c3)c[nH]c2n1 [Example 34, 5-(2-aminopyridin-4-yl)-2-methyl-N-(pyridin-3-ylmethyl)-7H-pyrrolo[2,3-d]pyrimidin-4-amine]	0.278
Cc1nc(NCc2ccnn2C)c2c(-c3ccnc(N)c3)c[nH]c2n1 [Example 38, 5-(2-aminopyridin-4-yl)-2-methyl-N-[(1-methyl-1H-pyrazol-5-yl)methyl]-7H-pyrrolo[2,3-d]pyrimidin-4-amine]	0.149
Cc1nc(NCc2nccs2)c2c(-c3ccnc(N)c3)c[nH]c2n1 [Example 39, 5-(2-aminopyridin-4-yl)-2-methyl-N-(1,3-thiazol-2-ylmethyl)-7H-pyrrolo[2,3-d]pyrimidin-4-amine]	0.084
Cc1nc(NCc2cncs2)c2c(-c3ccnc(N)c3)c[nH]c2n1 [Example 41, 5-(2-aminopyridin-4-yl)-2-methyl-N-(1,3-thiazol-5-ylmethyl)-7H-pyrrolo[2,3-d]pyrimidin-4-amine]	0.158

SMILES	IC50 [µM]
Cc1nc(NCc2ccccc2)c2c(-c3ccncc3)c[nH]c2n1 [Example 42, N-benzyl-2-methyl-5-(pyridin-4-yl)-7H-pyrrolo[2,3-d]pyrimidin-4-amine]	0.233
Cc1cc(-c2c[nH]c3nc(C)nc(NCc4ccccc4)c23)ccn1 [Example 43, N-benzyl-2-methyl-5-(2-methylpyridin-4-yl)-7H-pyrrolo[2,3-d]pyrimidin-4-amine]	0.278
Cc1nc(NCc2ccsc2)c2c(-c3ccncc3)c[nH]c2n1 [Example 44, 2-methyl-5-(pyridin-4-yl)-N-(thiophen-3-ylmethyl)-7H-pyrrolo[2,3-d]pyrimidin-4-amine]	0.249
Cc1nc(NCc2cc(C)on2)c2c(-c3ccncc3)c[nH]c2n1 [Example 46, 2-methyl-N-[(5-methyl-1,2-oxazol-3-yl)methyl]-5-(pyridin-4-yl)-7H-pyrrolo[2,3-d]pyrimidin-4-amine]	0.369
Cc1cc(-c2c[nH]c3nc(C)nc(NCc4cc(C)on4)c23)ccn1 [Example 47, 2-methyl-N-[(5-methyl-1,2-oxazol-3-yl)methyl]-5-(2-methylpyridin-4-yl)-7H-pyrrolo[2,3-d]pyrimidin-4-amine]	0.372
Cc1nc(NC(C)c2ccccc2)c2c(-c3ccnc(N)c3)c[nH]c2n1 (centres unmarked) [Example 49, 5-(2-aminopyridin-4-yl)-2-methyl-N-(1-phenylethyl)-7H-pyrrolo[2,3-d]pyrimidin-4-amine]	0.127
Cc1nc(NCc2cccc(F)c2)c2c(-c3ccnc(N)c3)c[nH]c2n1 [Example 50, 5-(2-aminopyridin-4-yl)-N-(3-fluorobenzyl)-2-methyl-7H-pyrrolo[2,3-d]pyrimidin-4-amine]	0.045
Cc1nc(N[C@@H](C)c2ccccc2)c2c(-c3ccnc(N)c3)c[nH]c2n1 [Example 67, 5-(2-aminopyridin-4-yl)-2-methyl-N-[(1S)-1-phenylethyl]-7H-pyrrolo[2,3-d]pyrimidin-4-amine]	0.094
Cc1nc(N[C@H](C)c2ccccc2)c2c(-c3ccnc(N)c3)c[nH]c2n1 [Example 68, 5-(2-aminopyridin-4-yl)-2-methyl-N-[(1R)-1-phenylethyl]-7H-pyrrolo[2,3-d]pyrimidin-4-amine]	0.059
Cc1nc(N[C@H]2CCc3ccccc32)c2c(-c3ccnc(N)c3)c[nH]c2n1 [Example 77, 5-(2-aminopyridin-4-yl)-N-[(1S)-2,3-dihydro-1H-inden-1-yl]-2-methyl-7H-pyrrolo[2,3-d]pyrimidin-4-amine]	0.057
Cc1nc(N[C@H](C)c2ccccc2F)c2c(-c3ccnc(N)c3)c[nH]c2n1 [Example 86, 5-(2-aminopyridin-4-yl)-N-[(1R)-1-(2-fluorophenyl)ethyl]-2-methyl-7H-pyrrolo[2,3-d]pyrimidin-4-amine]	0.121
Cc1nc(NCc2ccc(-c3ccccn3)s2)c2c(-c3ccnc(N)c3)c[nH]c2n1 [Example 87, 5-(2-aminopyridin-4-yl)-2-methyl-N-{[5-(pyridin-2-yl)thiophen-2-yl]methyl}-7H-pyrrolo[2,3-d]pyrimidin-4-amine]	1.94
Cc1nc(NCc2cc(-c3ccccc3)no2)c2c(-c3ccnc(N)c3)c[nH]c2n1 [Example 88, 5-(2-aminopyridin-4-yl)-2-methyl N-[(3-phenyl-1,2-oxazol-5-yl)methyl]-7H-pyrrolo[2,3-d]pyrimidin-4-amine]	2.09
Cc1nc(N[C@@H]2CCCc3ccccc32)c2c(-c3ccnc(N)c3)c[nH]c2n1 [Example 91, 5-(2-aminopyridin-4-yl)-2-methyl-N-[(1R)-1,2,3,4-tetrahydronaphthalen-1-yl]-7H-pyrrolo[2,3-d]pyrimidin-4-amine]	0.038
Cc1nc(NCc2cc(Cl)ccc2Cl)c2c(-c3ccnc(N)c3)c[nH]c2n1 [Example 92, 5-(2-aminopyridin-4-yl)-N-(2,5-dichlorobenzyl)-2-methyl-7H-pyrrolo[2,3-d]pyrimidin-4-amine]	0.087
Cc1nc(NC2CCCCC2)c2c(-c3ccnc(N)c3)c[nH]c2n1 [Example 93, 5-(2-aminopyridin-4-yl)-N-cyclohexyl-2-methyl-7H-pyrrolo[2,3-d]pyrimidin-4-amine]	0.176
Cc1nc(N2CCCC(C)C2)c2c(-c3ccnc(N)c3)c[nH]c2n1 (centres unmarked) [Example 97, 4-[2-methyl-4-{3-methylpiperidin-1-yl)-7H-pyrrolo[2,3-d]pyrimidin-5-yl]pyridin-2-amine]	0.063
Cc1nc(NCCC(F)(F)F)c2c(-c3ccnc(N)c3)c[nH]c2n1 [Example 100, 5-(2-aminopyridin-4-yl)-2-methyl-N-(3,3,3-trifluoropropyl)-7H-pyrrolo[2,3-d]pyrimidin-4-amine]	0.161
Cc1nc(N2CCC3(CCCCC3)CC2)c2c(-c3ccnc(N)c3)c[nH]c2n1 [Example 101, 4-[4-(3-azaspiro[5.5]undec-3-yl)-2-methyl-7H-pyrrolo[2,3-d]pyrimidin-5-yl]pyridin-2-amine]	0.034
Cc1nc(N2CCC3(CCC(C)CC3)C2)c2c(-c3ccnc(N)c3)c[nH]c2n1 (centres unmarked) [Example 102, 4-[2-methyl-4-(8-methyl-2-azaspiro[4.5]dec-2-yl)-7H-pyrrolo[2,3-d]pyrimidin-5-yl]pyridin-2-amine]	0.293
